Results from US7192979B2, “EP4 receptor selective agonist in the treatment of osteoporosis” (Pfizer Inc., priority 2000, dated 2007).

How the values were obtained:
wild type 293S cells = assay: Kidney regeneration assay: induction of BMP-7 expression (Northern blot) in wild type 293S cells; assay type: cell-based, human; settings: parental (wild type) 293S cell line; 10^-6M; 8, 16 and 24 hours
Experimental: (§1) The role of a prostaglandin agonist in kidney regeneration is investigated by the ability of Prostaglandin E2 (PGE2) or a prostaglandin agonist to induce the expression of Bone Morphogenetic Protein 7 (BMP-7) in wild type 293S cells and in 293S cells transfected with EP2.
(§2) Methods: 293S and EP2 293S cells are grown in Dulbecco's Modified Egale medium (DMEM, Gibco, BRL; Gaithersburg, Md.). One day prior to treatment with PGE2 or a prostaglandin agonist, cells are plated at a density of 1.5×10^6 cells/10 cm dish. Generally about 16 to 24 hours later the cell monolayer is washed once with OptiMEM (Gibco, BRL; Gaithersburg, Md.) followed by the addition of 10 ml OptiMEM/dish in the presence and absense of vehicle (DMSO), PGE2 (10^−6M) or a prostaglandin agonist (10^−6M). Cells are harvested and RNA is extracted at 8, 16 and 24 hours. Northern blot analysis of total RNA ([…]) is carried out by probing the blots with ^32P-labeled BMP-7 probe. The blots are normalized for RNA loading by hybridization with ^32P-labeled 18s ribosomal RNA probe. […] Given the known role of BMP-7 in kidney regeneration and the ability of an prostaglandin agonist to induce BMP-7 expression in 293S kidney cells in a time and receptor specific manner indicates a role for prostaglandin agonist in kidney regeneration.

[1] = tested on: ovariectomized (OVX) rat model; settings: model for postmenopausal osteoporosis, Ke et al., Bone 23:249-255, 1998; cited from earlier work
[2] = tested on: 293S cells transfected with EP2; assay: Kidney regeneration assay: induction of BMP-7 expression (Northern blot) in EP2 293S cells; assay type: cell-based, human; settings: 10^-6M, RNA at 8, 16 and 24 hours, time dependent
Experimental: as §1, §2

CCCCC[C@H](O)/C=C/[C@H]1[C@H](O)CC(=O)[C@@H]1C/C=C\CCCC(=O)O [PGE2, prostaglandin E2]
expression of Bone Morphogenetic Protein 7 (BMP-7) (wild type 293S cells): generally not observed | restoration of lost bone [1]: can restore lost bone | expression of Bone Morphogenetic Protein 7 (BMP-7) [2]: induce the expression of BMP-7
